Values joined by “and” are separate entries in the source; they are usually repeats but may differ in a detail not shown here. Equal entries are not always repeated. ± gives the expanded uncertainty stated by the source.
Assay: molar heat capacity at constant pressure
Details: 101.33 kPa, Crystal 1, Small (less than 1 g) adiabatic calorimetry

O=P([O-])([O-])[O-].[Cs+].[Mg+2] [caesium-magnesium monophosphate]
Details	molar heat capacity at constant pressure
292.8 K	121 ± 0.58 J/K/mol
294.9 K	121.5 ± 0.58 J/K/mol
297 K	121.9 ± 0.58 J/K/mol
298.15 K	122.1 ± 0.58 J/K/mol
298.84 K	122.3 ± 0.58 J/K/mol
300 K	122.6 ± 0.58 J/K/mol
300.7 K	122.7 ± 0.58 J/K/mol
303.3 K	123.3 ± 0.58 J/K/mol
305.9 K	123.9 ± 0.58 J/K/mol
308 K	124.4 ± 0.58 J/K/mol
310 K	124.8 ± 0.58 J/K/mol
310.1 K	124.8 ± 0.58 J/K/mol
312.4 K	125.4 ± 0.58 J/K/mol
314.7 K	125.9 ± 0.58 J/K/mol
316.4 K	126.2 ± 0.58 J/K/mol
318 K	126.5 ± 0.58 J/K/mol
320 K	127 ± 0.58 J/K/mol
321.1 K	127.2 ± 0.58 J/K/mol
324.2 K	128 ± 0.58 J/K/mol
325.3 K	128.2 ± 0.58 J/K/mol
326.4 K	128.5 ± 0.58 J/K/mol
329.66 K	129.1 ± 0.58 J/K/mol
330 K	129.2 ± 0.58 J/K/mol
330.5 K	128.9 ± 0.58 J/K/mol
332.91 K	129.7 ± 0.58 J/K/mol
333.99 K	129.9 ± 0.58 J/K/mol
334.4 K	129.7 ± 0.58 J/K/mol
335.08 K	130.1 ± 0.58 J/K/mol
338.2 K	130.6 ± 0.58 J/K/mol
338.3 K	130.5 ± 0.58 J/K/mol
340 K	131 ± 0.58 J/K/mol
341.8 K	131.2 ± 0.58 J/K/mol
342.2 K	131.4 ± 0.58 J/K/mol
343.4 K	131.5 ± 0.58 J/K/mol
345.83 K	132 ± 0.58 J/K/mol
346.1 K	132.2 ± 0.58 J/K/mol
348.25 K	132.5 ± 0.58 J/K/mol
350 K	133 ± 0.58 J/K/mol and 132.7 ± 0.58 J/K/mol
350.05 K	132.7 ± 0.58 J/K/mol
351.85 K	133 ± 0.58 J/K/mol
353.9 K	133 ± 0.58 J/K/mol
357.8 K	133.9 ± 0.58 J/K/mol
360 K	135 ± 0.83 J/K/mol
361.7 K	134.7 ± 0.58 J/K/mol
365.5 K	135.5 ± 0.58 J/K/mol
369.2 K	136.4 ± 0.58 J/K/mol
370 K	136 ± 0.83 J/K/mol
372.9 K	136.4 ± 0.58 J/K/mol
376.6 K	137.2 ± 0.58 J/K/mol
380 K	138 ± 0.83 J/K/mol
380.2 K	138 ± 0.58 J/K/mol
383.7 K	138 ± 0.58 J/K/mol
387.2 K	138.9 ± 0.58 J/K/mol
390 K	140 ± 0.83 J/K/mol
390.7 K	139.7 ± 0.58 J/K/mol
394.2 K	140.5 ± 0.58 J/K/mol
397.7 K	140.5 ± 0.58 J/K/mol
400 K	141 ± 0.83 J/K/mol
401.3 K	141.3 ± 0.58 J/K/mol
404.8 K	141.3 ± 0.58 J/K/mol
408.5 K	142.2 ± 0.58 J/K/mol
410 K	142 ± 0.83 J/K/mol
412.1 K	143 ± 0.58 J/K/mol
415.8 K	143 ± 0.58 J/K/mol
419.6 K	143.8 ± 0.58 J/K/mol
420 K	144 ± 0.83 J/K/mol
423.3 K	144.7 ± 0.67 J/K/mol
427 K	145.5 ± 0.67 J/K/mol
430 K	146 ± 0.83 J/K/mol
430.6 K	145.5 ± 0.67 J/K/mol
434.3 K	146.3 ± 0.67 J/K/mol
437.9 K	146.3 ± 0.67 J/K/mol
440 K	147 ± 0.83 J/K/mol
441.6 K	147.2 ± 0.67 J/K/mol
445.2 K	148 ± 0.67 J/K/mol
448.8 K	148 ± 0.67 J/K/mol
450 K	148 ± 0.83 J/K/mol
452.5 K	148.8 ± 0.67 J/K/mol
456.1 K	148.8 ± 0.67 J/K/mol
459.8 K	149.7 ± 0.67 J/K/mol
460 K	150 ± 0.83 J/K/mol
463.4 K	150.5 ± 0.67 J/K/mol
467.1 K	150.5 ± 0.67 J/K/mol
470 K	151 ± 0.83 J/K/mol
470.7 K	151.3 ± 0.67 J/K/mol
474.4 K	151.3 ± 0.67 J/K/mol
478.1 K	152.2 ± 0.67 J/K/mol
480 K	152 ± 0.83 J/K/mol
481.8 K	152.2 ± 0.67 J/K/mol
485.4 K	153 ± 0.67 J/K/mol
489.1 K	153.8 ± 0.67 J/K/mol
490 K	154 ± 0.83 J/K/mol
492.7 K	153.8 ± 0.67 J/K/mol
496.4 K	154.6 ± 0.67 J/K/mol
500 K	154.6 ± 0.67 J/K/mol and 155 ± 0.83 J/K/mol
503.7 K	155.5 ± 0.67 J/K/mol
507.3 K	155.5 ± 0.67 J/K/mol
510 K	156 ± 0.83 J/K/mol
511 K	156.3 ± 0.67 J/K/mol
514.6 K	156.3 ± 0.67 J/K/mol
518.3 K	157.1 ± 0.67 J/K/mol
520 K	157 ± 0.83 J/K/mol
521.8 K	157.1 ± 0.67 J/K/mol
525.4 K	158 ± 0.67 J/K/mol
529 K	158 ± 0.67 J/K/mol
530 K	159 ± 0.83 J/K/mol
532.6 K	158.8 ± 0.67 J/K/mol
536.1 K	158.8 ± 0.67 J/K/mol
539.8 K	159.6 ± 0.67 J/K/mol
540 K	160 ± 0.83 J/K/mol
543.3 K	159.6 ± 0.67 J/K/mol
546.9 K	160.5 ± 0.67 J/K/mol
550 K	160 ± 0.83 J/K/mol
550.5 K	160.5 ± 0.67 J/K/mol
554.1 K	161.3 ± 0.67 J/K/mol
557.7 K	161.3 ± 0.67 J/K/mol
560 K	162 ± 0.83 J/K/mol
561.4 K	162.1 ± 0.67 J/K/mol
565 K	162.1 ± 0.67 J/K/mol
568.7 K	163 ± 0.67 J/K/mol
570 K	163 ± 0.83 J/K/mol
572.4 K	163 ± 0.67 J/K/mol
576.1 K	163.8 ± 0.67 J/K/mol
579.8 K	163.8 ± 0.67 J/K/mol
580 K	164 ± 0.83 J/K/mol
583.4 K	164.6 ± 0.67 J/K/mol
587.1 K	164.6 ± 0.67 J/K/mol
590 K	165 ± 0.83 J/K/mol
590.7 K	165.5 ± 0.67 J/K/mol
594.3 K	165.5 ± 0.67 J/K/mol
597.9 K	166.3 ± 0.67 J/K/mol
600 K	166 ± 0.83 J/K/mol
603.4 K	166.3 ± 0.67 J/K/mol
607 K	167.1 ± 0.67 J/K/mol
610 K	167 ± 0.83 J/K/mol
610.6 K	167.1 ± 0.67 J/K/mol
614.2 K	168 ± 0.67 J/K/mol
617.7 K	168 ± 0.67 J/K/mol
620 K	168 ± 0.83 J/K/mol
621.4 K	168 ± 0.67 J/K/mol
625 K	168.8 ± 0.67 J/K/mol
628.6 K	168.8 ± 0.67 J/K/mol
630 K	169 ± 0.83 J/K/mol
632.3 K	169.6 ± 0.75 J/K/mol
636 K	169.6 ± 0.75 J/K/mol
639.7 K	170.4 ± 0.75 J/K/mol
640 K	170 ± 0.83 J/K/mol
643.3 K	170.4 ± 0.75 J/K/mol
648.9 K	171.3 ± 0.75 J/K/mol
650 K	171 ± 0.83 J/K/mol
